Measurements from the supplement of paper PMC10307832.

How the values were obtained:
Test in all cases: relative viability (nuclei count vs DMSO), 5 days (fraction); higher = more cells survive
[1] = compound: CN(c1ncccc1CNc1nc(Nc2ccc3c(c2)CC(=O)N3)ncc1C(F)(F)F)S(C)(=O)=O + CC(=O)Nc1cccc(-n2c(=O)n(C3CC3)c(=O)c3c(Nc4ccc(I)cc4F)n(C)c(=O)c(C)c32)c1 [Trametinib] (partner 0.02 µM)
In short: (§1)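 For relative viability, nuclei counts in treated wells were divided by those in vehicle wells. Lung cancer cell lines had been pin-tool dosed in 1536-well plates the day after seeding and cultured for 5 days, then fixed and stained in one step (final 0.05% Triton X-100, 1% formaldehyde, 1 ug/ml Hoechst) and imaged at 4×. Doses were one drug alone or a fixed anchor-drug dose plus five library-drug doses (not always all listed) in √10 steps, and values are duplicate-plate medians.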

[2] = compound: CN(c1ncccc1CNc1nc(Nc2ccc3c(c2)CC(=O)N3)ncc1C(F)(F)F)S(C)(=O)=O + COc1cccc2cc(-c3nc([C@H]4CC[C@H](C(=O)O)CC4)n4ncnc(N)c34)[nH]c12 [OSI-027] (partner 0.5 µM)
In short: as §1

[3] = compound: CN(c1ncccc1CNc1nc(Nc2ccc3c(c2)CC(=O)N3)ncc1C(F)(F)F)S(C)(=O)=O + CS(=O)(=O)CCNCc1ccc(-c2ccc3ncnc(Nc4ccc(OCc5cccc(F)c5)c(Cl)c4)c3c2)o1 [Lapatinib] (partner 2 µM)
In short: as §1

[4] = compound: CN(c1ncccc1CNc1nc(Nc2ccc3c(c2)CC(=O)N3)ncc1C(F)(F)F)S(C)(=O)=O + C[C@]1(O)C[C@@H](c2nc(-c3ccc4ccc(-c5ccccc5)nc4c3)c3c(N)nccn32)C1 [Linsitinib] (partner 1 µM)
In short: as §1

| Cell Line | relative viability ([1]; first compound 0.01 µM) | relative viability ([1]; first compound 0.03162 µM) | relative viability ([1]; first compound 0.1 µM) | relative viability ([1]; first compound 0.3162 µM) | relative viability ([1]; first compound 1 µM) | relative viability ([2]; first compound 0.01 µM) | relative viability ([2]; first compound 0.03162 µM) | relative viability ([2]; first compound 0.1 µM) | relative viability ([2]; first compound 0.3162 µM) | relative viability ([2]; first compound 1 µM) | relative viability ([3]; first compound 0.01 µM) | relative viability ([3]; first compound 0.03162 µM) | relative viability ([3]; first compound 0.1 µM) | relative viability ([3]; first compound 0.3162 µM) | relative viability ([3]; first compound 1 µM) | relative viability ([4]; first compound 0.01 µM) | relative viability ([4]; first compound 0.03162 µM) | relative viability ([4]; first compound 0.1 µM) | relative viability ([4]; first compound 0.3162 µM) | relative viability ([4]; first compound 1 µM) |
| --- | --- | --- | --- | --- | --- | --- | --- | --- | --- | --- | --- | --- | --- | --- | --- | --- | --- | --- | --- | --- |
| NCI-H2009 | 0.25 | 0.263 | 0.246 | 0.29 | 0.286 | 0.714 | 0.617 | 0.607 | 0.663 | 0.671 | 1.38 | 0.959 | 0.891 | 0.897 | 0.903 | 1.14 | 1.18 | 1.18 | 1.24 | 1.09 |
| NCI-H2023 | 0.52 | 0.539 | 0.6 | 0.426 | 0.52 | 0.412 | 0.464 | 0.404 | 0.425 | 0.393 | 0.855 | 0.976 | 0.781 | 0.908 | 0.761 | 0.765 | 0.714 | 0.73 | 0.71 | 0.631 |
| NCI-H2085 | 0.564 | 0.461 | 0.551 | 0.619 | 0.471 | 0.77 | 0.907 | 0.735 | 0.734 | 0.749 | 0.777 | 0.81 | 0.797 | 0.696 | 0.662 | 0.925 | 0.981 | 0.895 | 0.842 | 0.776 |
| NCI-H2087 | 0.137 | 0.233 | 0.199 | 0.196 | 0.224 | 0.513 | 0.766 | 0.594 | 0.659 | 0.585 | 1.44 | 1.12 | 0.876 | 0.927 | 0.893 | 1.03 | 1.04 | 1.14 | 1.16 | 0.99 |
| NCI-H2126 | 0.51 | 0.65 | 0.483 | 0.591 | 0.537 | 0.753 | 0.719 | 0.638 | 0.712 | 0.633 | 0.732 | 0.732 | 0.713 | 0.774 | 0.721 | 0.698 | 0.776 | 0.714 | 0.721 | 0.7 |
| NCI-H2228 | 0.553 | 0.81 | 0.473 | 0.384 | 0.483 | 0.825 | 0.827 | 0.563 | 0.514 | 0.464 | 0.835 | 0.914 | 1.02 | 1.07 | 1.08 | 0.502 | 0.286 | 0.627 | 1.06 | 0.929 |
| NCI-H2347 | 0.276 | 0.268 | 0.27 | 0.277 | 0.255 | 0.339 | 0.416 | 0.326 | 0.449 | 0.314 | 1.04 | 1.01 | 0.88 | 0.863 | 0.833 | 0.938 | 0.98 | 0.852 | 0.947 | 0.817 |
| NCI-H2405 | 0.633 | 0.676 | 0.596 | 0.596 | 0.584 | 0.617 | 0.676 | 0.572 | 0.51 | 0.533 | 1.16 | 1.08 | 0.995 | 1.02 | 0.91 | 0.899 | 0.935 | 0.818 | 0.865 | 0.824 |
